Source: patent US20230391756A1, “NEW COMPOUND” (JANSSEN PHARMACEUTICA NV, priority 2020, published 2023)

Assays:
[1] = test system: NLRP3 inflammasome pathway (IL-1β); test: PBMC assay: IL-1β release after LPS stimulation; assay type: cell-based; conditions: human PBMCs, 100 ng/ml LPS for 6 hrs, MSD
Method: The activity of a compound according to the present invention can be assessed by in vitro methods.
(§1) Peripheral venous blood was collected from healthy individuals and human peripheral blood mononuclear cells (PBMCs) were isolated from blood by Ficoll-Histopaque (Sigma-Aldrich, A0561) density gradient centrifugation. After isolation, PBMCs were stored in liquid nitrogen for later use. Upon thawing, PBMC cell viability was determined in growth medium (RPMI media supplemented with 10% fetal bovine serum, 1% Pen-Strep and 1% L-glutamine). […] PBMCs were added at a density of 7.5×10^4 cells per well and incubated for 30 min in a 5% CO2 incubator at 37° C. LPS stimulation was performed by addition of 100 ng/ml LPS (final concentration, Invivogen, tlrl-smlps) for 6 hrs followed by collection of cellular supernatant and the analysis of IL-1β (μM) and TNF cytokines levels (μM) via MSD technology according to manufacturers' guidelines (MSD, K151A0H).

TNF = test: PBMC assay: TNF cytokine level after LPS stimulation; assay type: cell-based; conditions: human PBMCs, 100 ng/ml LPS for 6 hrs, MSD, read-out: TNFα EC50
Method: as §1

SMILES	IC50 [1] [µM]	EC50 (TNF) [µM]	melting point [°C]
CC(F)(F)c1ccc2c(=O)c(CC(=O)Nc3ccc4nncn4c3)nn(C3CC3)c2c1 [F-67]	0.22	> 20	145.4
CC(C)n1nc(CC(=O)Nc2ccc3nncn3c2)c(=O)c2ccc(C3CCC3)cc21 [F-42]	7.76	17.8	179.8
CCn1nc(CC(=O)Nc2ncc3ncn(C)c3n2)c(=O)c2ccc(C(F)(F)F)cc21 [F-48]	3.26	> 20	271
O=C(Cc1nn(C2CC2)c2cc(C(F)(F)F)ccc2c1=O)Nc1cn2cnnc2cn1 [F-107]	1.14	> 20	270.9
CC(C)c1ccc2c(=O)c(CC(=O)Nc3ccc4nncn4n3)nn(C(C)C)c2c1 [F-32]	0.109	6.98	121.3
CC(C)n1nc(CC(=O)N[C@H]2C[C@@](C)(O)C2)c(=O)c2ccc(C(F)(F)F)cc21 [F-21]	0.836	> 20	200.9
CCC(C)n1nc(CC(=O)Nc2ccc3nncn3n2)c(=O)c2ccc(C(F)(F)F)cc21 (centres unmarked) [F-146]	0.142	4.67	179.8
CC(C)n1nc(CC(=O)Nc2nc3ccc(F)cc3n2C)c(=O)c2ccc(Br)cc21 [F-96]	> 20	> 20	229.8
CCn1nc(CC(=O)Nc2ccc3nncn3c2)c(=O)c2ccc(C(C)(F)F)cc21 [F-68]	0.2	> 20	279.8
CCn1nc(CC(=O)Nc2ccc3nncn3n2)c(=O)c2ccc(C(C)(F)F)cc21 [F-70]	0.147	7.84	252.9
CCn1nc(CC(=O)Nc2ccc3nncn3n2)c(=O)c2ccc(C3CCC3)cc21 [F-136]	1.03	14.1	136.4
CC(C)n1nc(CC(=O)Nc2ccc(=O)n(C)n2)c(=O)c2ccc(Br)cc21 [F-33]	0.433	> 20	221.9
CC(C)n1nc(CC(=O)Nc2nc3ccc(F)cc3n2C)c(=O)c2ccc(C(F)(F)F)cc21 [F-99]	> 20	> 20	221.8
CC(C)n1nc(CC(=O)Nc2nc3ccccc3o2)c(=O)c2ccc(C(F)(F)F)cc21 [F-110]	0.9	> 20	187.4
CC(C)n1nc(CC(=O)Nc2ccc3ncnn3c2)c(=O)c2ccc(C(F)(F)F)cc21 [F-24]	0.814	> 20	206.8
CC(C)n1nc(CC(=O)Nc2ccc(=O)n(C)n2)c(=O)c2ccc(C(F)(F)F)cc21 [F-18]	0.88	> 20	258.8
CCn1nc(CC(=O)Nc2ccc3ncn(C)c3n2)c(=O)c2ccc(C(F)(F)F)cc21 [F-57]	0.514	> 20	237.8
CC(C)n1nc(CC(=O)Nc2ccc3nncn3c2)c(=O)c2ccc(C(C)(C)F)cc21 [F-75]	0.52	14.6	256.8
CC(C)n1nc(CC(=O)Nc2ccc3cncn3c2)c(=O)c2ccc(C(F)(F)F)cc21 [F-15]	0.239	11	152.7
O=C(Cc1nn(C2CC2)c2cc(Br)ccc2c1=O)Nc1cn2cnnc2cn1 [F-113]	0.513	> 20	277.2
CCn1nc(CC(=O)Nc2ccc3nncn3c2)c(=O)c2ccc(C(C)(C)F)cc21 [F-74]	0.4	12.5	238.2
CC(C)n1nc(CC(=O)Nc2ccc3nncn3c2)c(=O)c2ccc(Cl)cc21 [F-29]	0.62	> 20	292
CC(C)n1nc(CC(=O)Nc2nc3ccccc3n2C)c(=O)c2ccc(Br)cc21 [F-100]	18.2	> 20	205.6

SMILES	IC50 [1] [µM]	EC50 (TNF) [µM]	melting point [°C]
O=C(Cc1nn(C2CC2)c2cc(C(F)(F)F)ccc2c1=O)Nc1ccc2nccn2n1 [F-61]	0.29	> 20	216.4
CC(C)n1nc(CC(=O)Nc2cc(Cl)c(=O)n(C(F)F)c2)c(=O)c2ccc(C(F)(F)F)cc21 [F-47]	3.65	> 20	233
CC(C)n1nc(CC(=O)Nc2ccc3c(C#N)ncn3c2)c(=O)c2ccc(C(F)(F)F)cc21 [F-36]	0.99	> 20	259.8
CC(C)n1nc(CC(=O)NC2CCc3ncn(C)c3C2)c(=O)c2ccc(C(F)(F)F)cc21 (centres unmarked) [F-43]	5.1	> 20	221
CC(C)n1nc(CC(=O)Nc2ccc3nncn3c2)c(=O)c2ccc(C3CC3)cc21 [F-81]	0.166	7.11	
CC(C)n1nc(CC(=O)N[C@H]2C[C@@](C)(O)C2)c(=O)c2ccc(Br)cc21 [F-3]	0.123	> 20	
CCn1nc(CC(=O)Nc2ccc3nncn3n2)c(=O)c2ccc(C(F)(F)F)cc21 [F-56]	0.53	18.5	
CCn1nc(CC(=O)Nc2ccc3nncn3c2)c(=O)c2ccc(C(C)C)cc21 [F-69]	0.166	17.4	
CC(C)n1nc(CC(=O)Nc2ccn3ccnc3c2)c(=O)c2ccc(C(F)(F)F)cc21 [F-38]	1.75	> 20	
CC(C)n1nc(CC(=O)Nc2nc3c(Cl)cccn3n2)c(=O)c2ccc(C(F)(F)F)cc21 [F-117]	0.835	> 20	
CC(C)n1nc(CC(=O)Nc2cc(C(F)(F)F)ncn2)c(=O)c2ccc(C(F)(F)F)cc21 [F-16]	6.73	> 20	
CC(C)n1nc(CC(=O)Nc2ccc3nncn3n2)c(=O)c2ccc(C(F)(F)F)cc21 [F-143]	0.109	7.58	
CC(C)n1nc(CC(=O)Nc2cc(F)[nH]c(=O)c2)c(=O)c2ccc(C(F)(F)F)cc21 [F-130, N-(6-fluoro-2-oxo-1,2-dihydropyridin-4-yl)-2-(1-isopropyl-4-oxo-7-(trifluoromethyl)-1,4-dihydrocinnolin-3-yl)acetamide]	0.86	11.2	
CC(C)n1nc(CC(=O)Nc2nc3cc(Br)ccc3n2C)c(=O)c2ccc(C(F)(F)F)cc21 [F-90]	> 20	> 20	
CCn1nc(CC(=O)Nc2ccncn2)c(=O)c2ccc(Br)cc21 [F-7]	0.45	> 20	
CC(C)n1nc(CC(=O)Nc2ccc3ncn(C)c3n2)c(=O)c2ccc(C(F)(F)F)cc21 [F-54]	0.685	> 20	
CC(C)n1nc(CC(=O)Nc2ccc3cnnn3c2)c(=O)c2ccc(C(F)(F)F)cc21 [F-40]	2.26	19.2	
Cc1nnc2n1CC(NC(=O)Cc1nn(C(C)C)c3cc(C(F)(F)F)ccc3c1=O)CC2 (centres unmarked) [F-11]	4.02	> 20	
CC(F)(F)c1ccc2c(=O)c(CC(=O)Nc3ccc4nncn4n3)nn(C3CC3)c2c1 [F-72]	0.096	6.23	
Cc1nnc2n1C[C@H](NC(=O)Cc1nn(C(C)C)c3cc(C(F)(F)F)ccc3c1=O)CC2 (single isomer, unassigned) [F-12]	> 20	> 20	
CC(C)n1nc(CC(=O)Nc2ccc3nncn3c2)c(=O)c2ccc(Br)cc21 [F-4]	0.071	9.56	
CCn1nc(CC(=O)N[C@H]2C[C@@](C)(OC(=O)Cc3nn(CC)c4cc(Br)ccc4c3=O)C2)c(=O)c2ccc(Br)cc21 [F-23]	> 10	> 10	
CC(C)c1ccc2c(=O)c(CC(=O)Nc3ccc4nncn4n3)nn(C3CC3)c2c1 [F-140]	0.143	4.88	
